Assay [1] concerns glucose-loaded mice (KK mice). Kind of assay: Example II: blood glucose time course after oral glucose loading in KK mice. In kind it is in vivo, mouse. The settings on record: glucose 1 g/kg p.o., FIG. 3. How it is done: KK mice (age of 25 weeks; male) fed with a commercially available high-calories feed for breeding (CMF; Oriental Yeast) were divided into groups with matched body weights. After starvation for 17 hours, glucose was orally given at 1 g/kg. Immediately thereafter, the inhibitor A of renal glucose reabsorption (30 mg/kg or 45 mg/kg) or metformin (200 mg/kg or 300 mg/kg) was orally given. Additionally, a group given with the inhibitor A of renal glucose reabsorption (30 mg/kg) and metformin (200 mg/kg) was prepared. A vehicle was orally given to a control group after glucose dosing.
Blood glucose level was assayed in a time course.

Assay [2] has as its system Type 2 diabetes model Zucker diabetic fatty rats. Description: Example V: insulin content in pancreas of Zucker diabetic fatty rats (ELISA). In kind it is in vivo, rat. The settings on record: twice daily p.o., day 39, starved 18 h, inhibitor A 30 mg/kg and/or metformin 200 mg/kg, FIG. 5. Here is the method:
Type 2 diabetes model Zucker diabetic fatty rats (age 15 weeks) were divided into groups with matched blood glucose levels and body weights. Subsequently, the inhibitor A of renal glucose reabsorption at 30 mg/kg or metformin at 200 mg/kg was orally given twice daily. Further, a group to be on a combined use of the inhibitor A of renal glucose reabsorption (30 mg/kg) and metformin (200 mg/kg) was prepared. The agents were orally given twice daily at the same time period as in the case of the groups administered with a single one of these agents. Only a vehicle was orally given twice daily to the animals in a control group. On day 39 from the start of administration, the animals were starved for 18 hours. Then, pancreas was resected from the animals, for the assay of insulin in pancreas homogenates by ELISA, to compare the groups in terms of insulin content in pancreas.
Zucker diabetic fatty rat is a type 2 diabetic model animal, where the sustainment of hyperglycemic conditions induces a high concentration of glycated hemoglobin so that the aging of the model animal involves the decrease of the insulin content in pancreas.
A general note: ELISA stands for enzyme-linked immunosorbent assay.

In assay [3] the test system is glucose-loaded rats (Wistar rats). Kind of assay: Example I: blood glucose time course after oral glucose loading in rats. The class given is in vivo, rat. The settings on record: glucose 1 g/kg p.o. How it is done:
Wistar rats (age of 7 weeks; male) were divided into groups with matched body weights. After 17-hour starvation, glucose was orally given at 1 g/kg to the animals. Immediately after the administration, the inhibitor A of renal glucose reabsorption or the inhibitor B of renal glucose reabsorption (A at 30 mg/kg or 60 mg/kg; B at 30 mg/kg or 80 mg/kg) or glibenclamide (1 mg/kg or 2 mg/kg) or nateglinide (50 mg/kg or 80 mg/kg) was orally given. Additionally, a group on the combined use of both of an inhibitor of renal glucose reabsorption and a hypoglycemic agent was also prepared. A vehicle was orally given to a control group after glucose administration.
Blood glucose was measured in a time course.

Assay [4] relates to Male Wistar rats. Kind of assay: Test Example 2A: excretion action of urine sugar in rat. The class given is in vivo. The settings on record: urine collected 24 hours. How it is done: Male Wistar rats aged 5 weeks (purchased from Charles River Japan, Inc.) were acclimatized in metabolic cages for one week, for use at this experiment. The test compounds suspended in olive oil were dosed at 5 ml per 1 kg rat body weight.
After the rats were starved for 4 hours, the test compounds were orally given to the rats at 11 am. Immediately after dosing until 24 hours later, urine was collected. The volume of urine was measured. Then, urine sugar concentration was assayed by glucose oxidase method, to calculate the glucose excretion into urine per individual per day.

In assay [5] the test system is Type 2 diabetic model GK rats. Description: Example III: blood glucose on day 25 of once daily dosing in GK rats. In kind it is in vivo, rat. The settings on record: once daily p.o., FIG. 4. How it is done: Type 2 diabetic model GK rats (age of 7 weeks; male) were divided into groups with matched blood glucose levels and body weights, for once daily oral administration of the inhibitor A of renal glucose reabsorption (30 mg/kg) or glibenclamide at 3 or 6 mg/kg. Further, a group given with a combination of the inhibitor A of renal glucose reabsorption at 30 mg/kg and glibenclamide at 3 mg/kg was prepared. These agents were orally given once daily at the same time period as in the group administered with a single one agent. Only a vehicle was given orally to a control group. On day 25 after the start of administration, blood glucose was assayed sequentially, to compare the groups in terms of the resulting blood glucose levels.

Assay [6] concerns Male Wistar rats. Kind of assay: Test Example 1B: excretion action of urine sugar in rat. The class given is in vivo. The settings on record: oral administration, 24 hours. How it is done: Male Wistar rats aged 5 weeks (purchased from Charles River Japan, Inc.) were acclimatized in metabolic cages for one week, for use at this experiment. The test compounds suspended in olive oil were prepared into solutions to a dose of 5 ml per 1 kg rat body weight. After the rats were starved for 4 hours, the test compounds were orally given at 10, 30 and 100 mg/kg to the rats at 11 am. Immediately after dosing until 24 hours later, urine was collected. The volume of urine was measured. Then, urine glucose concentration was assayed by glucose oxidase method, to calculate the glucose excretion into urine per individual per day. As a positive control, 3-(5-benzo[b]furanyl)-2′-(6-o-methoxycarbonyl-β-D-glucopyranosyloxy)-6′-hydroxy-4′-methylpropiophenone [under a different name of 3-(benzo[b]furan-5-yl)-2′,6′-dihydroxy-4′-methylpropiophenone 2′-o-(6-o-methoxycarbonyl-β-D-glucopyranoside)] was used.

The mark [7] stands for this setting: metformin 200 mg/kg, inhibitor A 30 mg/kg p.o., vs control.
Setting [8] is: nateglinide 50 mg/kg and/or inhibitor B 30 mg/kg p.o., vs vehicle, FIG. 2.
[9] abbreviates: glibenclamide 1 mg/kg and/or inhibitor A 30 mg/kg p.o., vs vehicle, FIG. 1.

`CN(C)C(=N)N=C(N)N` [metformin, reference compound]: in assay [1] (setting [7]), the “Blood glucose 30 minutes after glucose loading” value is “did not suppress the increase of blood glucose in the mice 30 minutes after glucose loading”; the “Blood glucose 60 minutes after glucose loading” value was “suppressed the increase 60 minutes later and thereafter”; the “Blood glucose 2 hours after glucose loading and thereafter” value was “suppressed the increase 60 minutes later and thereafter”. Moreover, the “Pattern of glycemic suppression at elevated dose” value in assay [1] (metformin 300 mg/kg, inhibitor A 45 mg/kg) was “The pattern of glycemic suppression did not change even when the dose was elevated”. Also, the “Insulin content in pancreas” value in assay [2] was “no difference was observed in insulin content in spleen”.
Regarding `CC(C)[C@H]1CC[C@H](C(=O)N[C@H](Cc2ccccc2)C(=O)O)CC1` [nateglinide], in assay [3] (setting [8]), the “Blood glucose 30 minutes after glucose loading” value was “more highly suppressed hyperglycemia immediately after glucose loading (30 minutes and 60 minutes)”; the “Blood glucose 60 minutes after glucose loading” value was “more highly suppressed hyperglycemia immediately after glucose loading (30 minutes and 60 minutes)”. Also, the “Blood glucose 120 minutes after glucose loading and thereafter” value in assay [3] (nateglinide 50 mg/kg p.o., vs vehicle, FIG. 2) was “did not lower the blood glucose level 120 minutes after glucose loading and thereafter”. In assay [3] (nateglinide 80 mg/kg, inhibitor B 80 mg/kg, FIG. 2), the “Pattern of glycemic suppression at increased dose” value is “the pattern of glycemic suppression did not change even by the elevation of the dose”.
Regarding `COC(=O)OC[C@H]1O[C@@H](Oc2nn(C(C)C)c(C)c2Cc2ccc(C)c(F)c2)[C@H](O)[C@@H](O)[C@@H]1O` [Production Example 14-A, 4′-[(3′-fluoro-4′-methylphenyl)methyl]-1′-isopropyl-5′-methyl-1H-pyrazole-3′-o-(6-carbomethoxy)-β-D-glucopyranoside], the Excreted urine sugar in the assay on Male Wistar rats [4] (Dose 100 mg/kg p.o.) stood at 918 mg.
Still for that read-out and setting: the figure for `COC(=O)OC[C@H]1O[C@@H](Oc2nn(C(C)C)c(C)c2Cc2ccc(OC)c(F)c2)[C@H](O)[C@@H](O)[C@@H]1O` [Production Example 10-A, 4′-[(3′-fluoro-4′-methoxyphenyl)methyl]-1′-isopropyl-5′-methyl-1H-pyrazole-3′-o-(6-carbomethoxy)-β-D-glucopyranoside] is 734 mg.
The molecule `CCc1ccc(Cc2c(O[C@@H]3O[C@H](COC(=O)OC)[C@@H](O)[C@H](O)[C@H]3O)nn(-c3ccccc3)c2C(F)(F)F)cc1` [Production Example 8-A, 4′-[(4′-ethylphenyl)methyl]-1′-phenyl-5′-trifluoromethyl-1H-pyrazole-3′-o-(6-carbomethoxy)-β-D-glucopyranoside] yielded an Excreted urine sugar in the assay with Male Wistar rats [4] (Dose 100 mg/kg p.o.) of 4.1 mg.
On the same count and under the same terms, the result for `CCc1ccc(Cc2c(O[C@@H]3O[C@H](COC(=O)OC)[C@@H](O)[C@H](O)[C@H]3O)nn(Cc3ccc(OC)cc3)c2C(F)(F)F)cc1` [Production Example 6-A, 4′-[(4′-ethylphenyl)methyl]-1′-[(4′-methoxyphenyl)methyl]-5′-trifluoromethyl-1H-pyrazole-3′-o-(6-carbomethoxy)-β-D-glucopyranoside] reads 59 mg.
Consider `Cc1[nH]nc(O[C@@H]2O[C@H](CO)[C@@H](O)[C@H](O)[C@H]2O)c1Cc1ccc(OC(C)C)cc1` [Reference Production Example 1, 4-[(4-isopropoxyphenyl)methyl]-5-methyl-1H-pyrazole-3-o-β-D-glucopyranoside, reference compound], for which the Excreted urine sugar in the assay with Male Wistar rats [4] (Dose 100 mg/kg p.o.) came out at 14 mg.
In the assay with Male Wistar rats [4] (Dose 100 mg/kg p.o.), `CCc1ccc(Cc2c(O[C@@H]3O[C@H](COC(=O)OC)[C@@H](O)[C@H](O)[C@H]3O)nn(Cc3ccccc3)c2C(F)(F)F)cc1` [Production Example 4-A, 4′-[(4′-ethylphenyl)methyl]-1′-benzyl-5′-trifluoromethyl-1H-pyrazole-3′-o-(6-carbomethoxy)-β-D-glucopyranoside] came in with an Excreted urine sugar of 27 mg.
Take `CCc1ccc(Cc2c(O[C@@H]3O[C@H](COC(=O)OC)[C@@H](O)[C@H](O)[C@H]3O)nn(C(C)C)c2C)cc1` [Production Example 16-A, 4′-[(4-ethylphenyl)methyl]-1′-isopropyl-5′-methyl-1H-pyrazole-3′-o-(6-carbomethoxy)-β-D-glucopyranoside]: the Excreted urine sugar in the assay on Male Wistar rats [4] (Dose 3 mg/kg p.o.) turned out to be 28 mg; in the assay on Male Wistar rats [4] (Dose 10 mg/kg p.o.) it was 263 mg; in the assay with Male Wistar rats [4] (Dose 30 mg/kg p.o.), 294 mg; in the assay with Male Wistar rats [4] (Dose 100 mg/kg p.o.), 598 mg.
For `COc1ccc(Cl)cc1C(=O)NCCc1ccc(S(=O)(=O)NC(=O)NC2CCCCC2)cc1` [glibenclamide], the “Blood glucose 120 minutes after glucose loading and thereafter” value in assay [3] (setting [9]) is “lowered blood glucose 120 minutes after glucose loading and thereafter”. Moreover, the “Blood glucose immediately after glucose loading (30 minutes)” value in assay [3] (setting [9]) is recorded as “did not suppress hyperglycemia immediately after glucose loading”. Further, the “Pattern of glycemic suppression at increased dose” value in assay [3] (glibenclamide 2 mg/kg, inhibitor A 60 mg/kg, FIG. 1) is “did not change changed the pattern of glycemic suppression”. For the same molecule, the “Blood glucose level on day 25” value is recorded as “no difference was observed from the vehicle-dosed group in terms of the blood glucose levels” in assay [5] (glibenclamide 3 mg/kg and/or inhibitor A 30 mg/kg) and “did not produce any difference in blood glucose level from the vehicle-dosed group” in assay [5] (glibenclamide 6 mg/kg).
For the molecule `CCc1ccc(Cc2c(OC3OC(COC(=O)OC)C(O)C(O)C3O)nn(C(CF)CF)c2C(F)(F)F)cc1` [Production Example 2B, 4′-[(4′-ethylphenyl)methyl]-1′-(1′,3′-difluoro-2′-propyl)-5′-(trifluoromethyl)-1H-pyrazole-3′-o-(6-o-methoxycarbonyl-β-D-glucopyranoside)], the Excreted urine sugar in the assay on Male Wistar rats [6] (Dose 10 mg/kg) is reported as 136 mg; in the assay with Male Wistar rats [6] (Dose 30 mg/kg) it was 272 mg; with Male Wistar rats [6] (Dose 100 mg/kg), 524 mg.

Values taken from US7956041B2, “Prophylactic and therapeutic agent of diabetes mellitus” (Ajinomoto Co., Inc., priority 2002, dated 2011).
